Read-outs that look alike come from different tables or passages of the source.
Tests used:
[1] = system: patients with advanced solid tumors and relapsed/refractory (R/R) B-cell lymphomas; assay: Phase I dose escalation: safety, DLT, MTD/RP2D (NCI-CTCAE v5.0); type: in vivo; conditions: for Grade ≥ 3 treatment-related adverse events: Hypophosphatemia / Grade ≥ 3 treatment-related adverse events: Metabolism and nutrition disorders / Grade ≥ 3 treatment-related adverse events: Nausea / No. of pts with Gr ≥ 3 TRAEs: daily oral
Description: A standard 3 + 3 design was used to assess for MTD and establish RP2D according to a pre-determined dose-escalation schema (Table 1). There was no intra-patient dose escalation. The MTD was defined as the dose level below the cohort in which 2 or more patients experienced a first cycle, zelenirstat attributable, dose-limiting toxicity (DLT), and the MTD required confirmation in at least 6 patients.
DLT was defined as any of the following: Grade (Gr) 4 thrombocytopenia, Gr 3 thrombocytopenia with bleeding, Gr 4 neutropenia ≥ 7 days, febrile neutropenia, clinically significant ≥ Gr 3 non-hematologic toxicity, or any significant toxicity warranting a withhold of zelenirstat. […] Toxicity was graded according to the National Cancer Institute Common Toxicity Criteria for Adverse Events (NCI-CTCAE) version 5.0.
For dose escalation, patients received daily oral zelenirstat on 28-day cycles. It was administered as 10 mg and 70 mg capsules, with instructions to take on an empty stomach each morning with 250 ml of tap water. Patients received zelenirstat until progressive disease, unacceptable toxicity, or withdrawal of consent.
Baseline imaging and hematology and blood chemistry were obtained within 4 weeks and 1 week of study entry, respectively. Baseline screening included a complete medical history, physical examination, assessment of ECOG performance status, and body weight. CT imaging was used for advanced solid tumors and B-cell NHL; PET-CT was optional for B-cell NHL. Weekly complete blood counts with white blood cell differentiation and blood chemistries were drawn for the first cycle, biweekly for cycle 2, and then prior to each 28-day cycle. Adverse events were evaluated weekly in the first cycle, biweekly for cycle 2, and before each subsequent cycle using the NCI-CTCAE version 5.0.

[2] = human, in vivo
Description: (§1) Peripheral blood samples were collected over six time points in the first 8 h of Cycle 1, Day 1 (C1D1), and again on C1D15. Pre-treatment Day 1 levels were obtained with every subsequent cycle.

[3] = system: cultured human cancer cells; set-up: method as in PMID 33093447; conditions: wide variety of cultured human cancer cells; cited from earlier work
[4] = system: cell line derived xenografts from breast carcinomas; set-up: method as in PMID 33398478; conditions: mice-bearing established human tumor xenografts; cited from earlier work
[5] = system: cell line derived xenografts from lung carcinomas; set-up: method as in Pacylex Inc., data on file; conditions: mice-bearing established human tumor xenografts, ref Pacylex Inc., data on file; cited from earlier work
[6] = system: patient derived xenograft models of refractory DLBCL; set-up: method as in PMID 33093447; conditions: cited from earlier work
[7] = system: cell line and patient derived xenograft models of AML; set-up: method as in doi:10.1182/blood-2022-170544; conditions: cited from earlier work
human AML = system: human AML; set-up: method as in doi:10.1182/blood-2022-170544; conditions: murine tail-vein injection models of human AML; cited from earlier work
[8] = set-up: method as in Pacylex, data on file; conditions: preclinical models; ref Pacylex, data on file; cited from earlier work
[9] = set-up: method as in Pacylex, data on file; conditions: preclinical models; ref Pacylex, data on file; cited from earlier work; remark: listed apart in the source
CYP3A4 = system: CYP3A4; set-up: method as in Pacylex, data on file; conditions: preclinical models; ref Pacylex, data on file; cited from earlier work
off-target kinase = system: off-target kinase; set-up: method as in doi:10.1182/blood-2019-124934; conditions: cited from earlier work
[10] = set-up: method as in doi:10.1182/blood-2019-124934; conditions: multiple daily oral administration; cited from earlier work
[11] = system: ADP-ribosylation factor 6 (ARF6); set-up: method as in Pacylex, data on file; conditions: cultured colon cancer cells; ref Pacylex, data on file; cited from earlier work
dogs = conditions: dog, in vivo; cited from earlier work
[12] = Plasma pharmacokinetics in phase I patients (UPLC-MS/MS); conditions: beyond Day 15
Description: as §1

[13] = oral once daily, 28-day cycles, patients

In the case of Cc1c(NS(=O)(=O)c2c(Cl)cc(-c3ccnc(N4CCNCC4)c3)cc2Cl)c(CC(C)C)nn1C [zelenirstat], the “Grade ≥ 3 treatment-related adverse events: Hypophosphatemia” value ([1]; 20 mg (N = 3)) is reported as 0 n, %, the “Grade ≥ 3 treatment-related adverse events: Metabolism and nutrition disorders” value ([1]; 20 mg (N = 3)) is reported as 0 n, % and the “Grade ≥ 3 treatment-related adverse events: Nausea” value ([1]; 20 mg (N = 3)) is reported as 0 n, %. The “No. of pts with Gr ≥ 3 TRAEs” value ([1]; 20 mg (N = 3)) was 0 n, %, the “Grade ≥ 3 treatment-related adverse events: Hypophosphatemia” value ([1]; 40 mg (N = 3)) was 0 n, % and the “Grade ≥ 3 treatment-related adverse events: Metabolism and nutrition disorders” value ([1]; 40 mg (N = 3)) was 0 n, %. For the same compound, the “Grade ≥ 3 treatment-related adverse events: Nausea” value ([1]; 40 mg (N = 3)) was 0 n, %, the “No. of pts with Gr ≥ 3 TRAEs” value ([1]; 40 mg (N = 3)) was 0 n, % and the “Grade ≥ 3 treatment-related adverse events: Hypophosphatemia” value ([1]; 70 mg (N = 3)) was 0 n, %. For the same compound, the “Grade ≥ 3 treatment-related adverse events: Metabolism and nutrition disorders” value ([1]; 70 mg (N = 3)) was 0 n, %, the “Grade ≥ 3 treatment-related adverse events: Nausea” value ([1]; 70 mg (N = 3)) was 0 n, % and the “No. of pts with Gr ≥ 3 TRAEs” value ([1]; 70 mg (N = 3)) was 1 (33) n, %. The “Grade ≥ 3 treatment-related adverse events: Hypophosphatemia” value ([1]; 100 mg (N = 5)) was 0 n, %, the “Grade ≥ 3 treatment-related adverse events: Metabolism and nutrition disorders” value ([1]; 100 mg (N = 5)) was 0 n, % and the “Grade ≥ 3 treatment-related adverse events: Nausea” value ([1]; 100 mg (N = 5)) was 0 n, %. The “No. of pts with Gr ≥ 3 TRAEs” value ([1]; 100 mg (N = 5)) was 0 n, %, the “Grade ≥ 3 treatment-related adverse events: Hypophosphatemia” value ([1]; 140 mg (N = 3)) was 0 n, % and the “Grade ≥ 3 treatment-related adverse events: Metabolism and nutrition disorders” value ([1]; 140 mg (N = 3)) was 0 n, %. For the same compound, the “Grade ≥ 3 treatment-related adverse events: Nausea” value ([1]; 140 mg (N = 3)) was 0 n, %, the “No. of pts with Gr ≥ 3 TRAEs” value ([1]; 140 mg (N = 3)) was 0 n, % and the “Grade ≥ 3 treatment-related adverse events: Hypophosphatemia” value ([1]; 210 mg (N = 7)) was 0 n, %. The “Grade ≥ 3 treatment-related adverse events: Metabolism and nutrition disorders” value ([1]; 210 mg (N = 7)) was 0 n, %, the “Grade ≥ 3 treatment-related adverse events: Nausea” value ([1]; 210 mg (N = 7)) was 0 n, % and the “No. of pts with Gr ≥ 3 TRAEs” value ([1]; 210 mg (N = 7)) was 0 n, %. For the same compound, the “Grade ≥ 3 treatment-related adverse events: Hypophosphatemia” value ([1]; 280 mg (N = 5)) was 1 (20) n, %, the “Grade ≥ 3 treatment-related adverse events: Metabolism and nutrition disorders” value ([1]; 280 mg (N = 5)) was 1 (20) n, % and the “Grade ≥ 3 treatment-related adverse events: Nausea” value ([1]; 280 mg (N = 5)) was 1 (20) n, %. The “No. of pts with Gr ≥ 3 TRAEs” value ([1]; 280 mg (N = 5)) was 4 (80) n, %, the “evaluable patients with first cycle dose-limiting gastrointestinal toxicities” value ([1]; 280 mg daily cohort) was “Three” and the neuropathy ([1]; dose cohorts up to and including 210 mg) was “No neuropathy was reported”. For the same compound, the “Gr 2 thrombocytopenia, patients” value ([1]; dose cohorts up to and including 210 mg, resolved despite continuation at full dose) was 12%, the “maximum tolerated dose (MTD)” value [1, 13] was 210 mg and the “recommended phase 2 dose (RP2D)” value [1, 13] was 210 mg. For the same compound, the “drug-induced QT prolongation” value ([1]; pre- and post-dose ECG assessments, patients) was “no evidence of drug-induced QT prolongation”, the “first cycle (or any cycle) DLTs” value ([1]; six evaluable patients, 210 mg per day cohort) was “absence of first cycle (or any cycle) DLTs” and the “Plasma concentrations (Cmax and AUC values) in patients on PPIs compared to patients not taking PPIs” value [2] was “tended to be lower”. For the same compound, the “Systemic exposure (Cmax and AUC values) versus dose” value [2] was “tended to increase with increasing dose”, the “time to steady state (visual observation of pre-dose concentrations)” value [2] was 8 to 15 days and the “accumulation following repeated administration” value ([2]; 14 day) was less than 2 fold. The “accumulation ratio for AUC0 − 24 (ArAUC0−24)” value ([2]; 14 day) was 1.0-1.9, the “accumulation ratio for Cmax (ArCmax)” value ([2]; 14 day) was 0.41-1.72 and the “accumulation ratios for both ArCmax and ArAUC0−24” value ([2]; 14 days) was 3-6 fold. For the same compound, the “time to steady state” value ([2]; po) was no more than 15 days, the “AUC0 − 24 (h*ng/mL) (mean, SD)” value ([2]; po, 20 mg) was 2066 (387) h*ng/mL and the “Cmax (ng/ml) (mean, SD)” value ([2]; po, 20 mg) was 276 (117) ng/ml. For the same compound, the “Tmax (h) (median, range)” value ([2]; po, 20 mg) was 1 (0.5–2.1) h, the “t1/2 (h) (mean, SD)” value ([2]; po, 20 mg) was 7.4 (2.0) h and the “AUC0 − 24 (h*ng/mL) (mean, SD)” value ([2]; po, 40 mg) was 7060 (6711) h*ng/mL. The “Cmax (ng/ml) (mean, SD)” value ([2]; po, 40 mg) was 774 (720) ng/ml, the “t1/2 (h) (mean, SD)” value ([2]; po, 40 mg) was 9.7 (3.0) h and the “AUC0 − 24 (h*ng/mL) (mean, SD)” value ([2]; po, 70 mg) was 6613 (3526) h*ng/mL. The “Cmax (ng/ml) (mean, SD)” value ([2]; po, 70 mg) was 467 (257) ng/ml, the “Tmax (h) (median, range)” value ([2]; po, 70 mg) was 4.1 (4.0-7.9) h and the “AUC0 − 24 (h*ng/mL) (mean, SD)” value ([2]; po, 100 mg) was 18,936 (9188) h*ng/mL. For the same compound, the “Cmax (ng/ml) (mean, SD)” value ([2]; po, 100 mg) was 2188 (1037) ng/ml, the “Tmax (h) (median, range)” value ([2]; po, 100 mg) was 2.0 (2.0-3.8) h and the “t1/2 (h) (mean, SD)” value ([2]; po, 100 mg) was 8.0 (2.3) h. For the same compound, the “AUC0 − 24 (h*ng/mL) (mean, SD)” value ([2]; po, 140 mg) was 8150 (2846) h*ng/mL, the “Cmax (ng/ml) (mean, SD)” value ([2]; po, 140 mg) was 1335 (964) ng/ml and the “Tmax (h) (median, range)” value ([2]; po, 140 mg) was 2.0 (1.0–2.0) h. For the same compound, the “t1/2 (h) (mean, SD)” value ([2]; po, 140 mg) was 10.4 (5.5) h, the “AUC0 − 24 (h*ng/mL) (mean, SD)” value ([2]; po, 210 mg) was 27,558 (13,349) h*ng/mL and the “Cmax (ng/ml) (mean, SD)” value ([2]; po, 210 mg) was 2935 (1047) ng/ml. The “Tmax (h) (median, range)” value ([2]; po, 210 mg) was 2.0 (1.0-3.9) h, the “t1/2 (h) (mean, SD)” value ([2]; po, 210 mg) was 7.7 (3.4) h and the “effect on cultured human cancer cells” value [3] was “cytotoxic or cytostatic”. The xenograft tumor response [4] was “tumor growth inhibition”, the xenograft tumor response [5] was “tumor growth inhibition” and the xenograft tumor response [6] was “profound tumor regression and complete remissions”. For the same compound, the xenograft tumor response [7] was “similarly profound remissions”, the leukemic cell burden (human AML) was “reduced the leukemic cell burden” and the oral bioavailability [8] was “high oral bioavailability”. For the same compound, the plasma protein binding [9] was “highly bound to plasma protein”, the metabolism (CYP3A4) was “metabolized in the liver primarily by CYP3A4” and the off-target kinase inhibition (off-target kinase) was “no relevant off-target kinase inhibition”. The “dose limiting toxicity in GLP non-clinical safety testing” value [10] was “diarrhea was dose limiting”, the “myristoylation of ARF6” value [11] was “inhibits the myristoylation” and the “toxicities in formal toxicologic evaluation” value (dogs) was “acute gastrointestinal and hematologic toxicities”. The “accumulation over multiple cycles (pre-dose concentrations)” value [12] was “no accumulation was apparent beyond Day 15”.

From article PMC11327210, “A first-in-human phase I trial of daily oral zelenirstat, a N-myristoyltransferase inhibitor, in patients with advanced solid tumors and relapsed/refractory B-cell lymphomas” (Investigational New Drugs, 2024)
